Structures are written as SMILES. Several values for one entry are separate records, joined by “and”; a condition that tells them apart may be missing. Identical values can stand only once. Toxic doses and inconclusive results are not listed.

The subject of the assay is L1210 leukemia ip in BDF1 mice, survival T/C. The assay is described as follows: NCI In Vivo Anticancer Drug Screen. Data for tumor model L1210 Leukemia (intraperitoneal) in B6D2F1 (BDF1) mice. As to conditions: endpoint: mean survival time, higher = longer survival. In a few lines:
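Ratio derived from survival: compound-dosed mice over vehicle-dosed mice, all bearing a transplantable tumor.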

Setting [1] is: dose: 12.5 mg/kg/injection, schedule: Q04DX003 (ip), vehicle: saline with Tween-80.
Setting [2] is: dose: 25.0 mg/kg/injection, schedule: Q04DX003 (ip), vehicle: saline with Tween-80.
The mark [3] stands for this setting: dose: 100.0 mg/kg/injection, schedule: Q04DX003 (ip), vehicle: saline.
[4] abbreviates: dose: 200.0 mg/kg/injection, schedule: Q04DX003 (ip), vehicle: saline.
Where [5] appears, read: dose: 200.0 mg/kg/injection, schedule: Q04DX002 (ip), vehicle: Klucel (hydroxypropylcellulose) (HPC).
[6] abbreviates: dose: 50.0 mg/kg/injection, schedule: Q04DX003 (ip), vehicle: saline with Tween-80.

With `CSc1nc([N+](=O)[O-])c2cnccn12`, the T/C was 88 % of control (dose: 6.25 mg/kg/injection, schedule: Q01DX009 (ip), vehicle: saline with Tween-80); 93 % of control (dose: 12.5 mg/kg/injection, schedule: Q01DX009 (ip), vehicle: saline with Tween-80); 101 % of control under setting [1]; 93 % of control (dose: 25.0 mg/kg/injection, schedule: Q01DX009 (ip), vehicle: saline with Tween-80); 103 % of control under setting [2]; 93 % of control (dose: 50.0 mg/kg/injection, schedule: Q01DX009 (ip), vehicle: saline with Tween-80).

Take `CCC1=C/C(=C/c2cc(Cl)ccc2O)C(=O)S1`: the T/C was 91 % of control (dose: 100.0 mg/kg/injection, schedule: Q01DX001 (ip), vehicle: saline with Tween-80); 87 % of control (dose: 200.0 mg/kg/injection, schedule: Q01DX001 (ip), vehicle: saline with Tween-80); 94 % of control (dose: 400.0 mg/kg/injection, schedule: Q01DX001 (ip), vehicle: saline with Tween-80).

Turning to `CC[N+](CC)(CC)CCNC(C)=O`, the T/C reads like this: (dose: 100.0 mg/kg/injection, schedule: Q01DX009 (ip), vehicle: saline) 111 % of control; (dose: 200.0 mg/kg/injection, schedule: Q01DX009 (ip), vehicle: saline) 100 % of control; (dose: 400.0 mg/kg/injection, schedule: Q01DX009 (ip), vehicle: saline) 105 % of control.

Take `O=S(=O)(NS(=O)(=O)c1ccc(Cl)cc1)c1ccc(Cl)cc1`: the T/C is 93 % of control (dose: 50.0 mg/kg/injection, schedule: Q01DX009 (ip), vehicle: Klucel (hydroxypropylcellulose) (HPC)); 96 % of control (dose: 100.0 mg/kg/injection, schedule: Q01DX009 (ip), vehicle: Klucel (hydroxypropylcellulose) (HPC)); 88 % of control (dose: 100.0 mg/kg/injection, schedule: Q04DX003 (ip), vehicle: Klucel (hydroxypropylcellulose) (HPC)); 104 % of control (dose: 200.0 mg/kg/injection, schedule: Q01DX009 (ip), vehicle: Klucel (hydroxypropylcellulose) (HPC)); 87 % of control (dose: 200.0 mg/kg/injection, schedule: Q04DX003 (ip), vehicle: Klucel (hydroxypropylcellulose) (HPC)).

For the compound `O=C(O)C1(C(=O)O)CCC1.[NH2-].[NH2-].[Pt+2]`, the T/C was 97 % of control (dose: 2.0 mg/kg/injection, schedule: Q01DX009 (ip), vehicle: saline); 100 % of control (dose: 4.0 mg/kg/injection, schedule: Q01DX001 (ip), vehicle: saline); 100 % of control (dose: 4.0 mg/kg/injection, schedule: Q01DX009 (ip), vehicle: saline); 100 % of control (dose: 8.0 mg/kg/injection, schedule: Q01DX001 (ip), vehicle: saline); 108 % of control (dose: 8.0 mg/kg/injection, schedule: Q01DX009 (ip), vehicle: saline); 102 % of control (dose: 16.0 mg/kg/injection, schedule: Q01DX001 (ip), vehicle: saline). In addition, the T/C (dose: 16.0 mg/kg/injection, schedule: Q01DX009 (ip), vehicle: saline) is 119 % of control; the T/C (dose: 25.0 mg/kg/injection, schedule: Q04DX003 (ip), vehicle: saline) is 110 % of control and 113 % of control; the T/C (dose: 64.0 mg/kg/injection, schedule: Q01DX009 (ip), vehicle: saline) was 171 % of control; the T/C under setting [3] is 154 % of control and 176 % of control; the T/C (dose: 128.0 mg/kg/injection, schedule: Q01DX001 (ip), vehicle: saline) was 152 % of control; the T/C under setting [4] was 97 % of control and 105 % of control.

On to `O=C(O)c1cc(N2C(=O)C=CC2=O)cc(N2C(=O)C=CC2=O)c1`, for which the T/C (dose: 11.1 mg/kg/injection, schedule: Q01DX Z (ip), vehicle: methylcellulose (MC)) is 102 % of control; the T/C (dose: 16.6 mg/kg/injection, schedule: Q01DX Z (ip), vehicle: methylcellulose (MC)) was 102 % of control; the T/C (dose: 25.0 mg/kg/injection, schedule: Q01DX Z (ip), vehicle: methylcellulose (MC)) is 94 % of control.

Regarding `COC(=O)C1(C)CCCC2(C)C3CCC4(C)CC3(CCO4)CCC12` (configuration not stated), the T/C is, setting by setting: under setting [5], 87 % of control; (dose: 400.0 mg/kg/injection, schedule: Q04DX002 (ip), vehicle: Klucel (hydroxypropylcellulose) (HPC)) 95 % of control.

Consider `O=C(c1ccccc1)c1ccc(Br)cc1O`, for which the T/C was 105 % of control (dose: 100.0 mg/kg/injection, schedule: Q01DX001 (ip), vehicle: carboxymethylcellulose (CMC)); 98 % of control (dose: 200.0 mg/kg/injection, schedule: Q01DX001 (ip), vehicle: carboxymethylcellulose (CMC)); 100 % of control (dose: 400.0 mg/kg/injection, schedule: Q01DX001 (ip), vehicle: carboxymethylcellulose (CMC)).

Regarding `Cc1ccc2c(c1)C(c1ccccc1)=C(NC1CCCCC1)C2=O`, the T/C was 87 % of control (dose: 100.0 mg/kg/injection, schedule: Q01DX001 (ip), vehicle: Klucel (hydroxypropylcellulose) (HPC)); 91 % of control (dose: 200.0 mg/kg/injection, schedule: Q01DX001 (ip), vehicle: Klucel (hydroxypropylcellulose) (HPC)); 92 % of control (dose: 400.0 mg/kg/injection, schedule: Q01DX001 (ip), vehicle: Klucel (hydroxypropylcellulose) (HPC)).

Regarding `CC(=O)OCCn1c(C)nc2cc(Cl)c(Cl)cc21`, the T/C is 94 % of control (dose: 100.0 mg/kg/injection, schedule: Q04DX003 (ip), vehicle: acetone); 98 % of control (dose: 200.0 mg/kg/injection, schedule: Q04DX003 (ip), vehicle: acetone); 93 % of control (dose: 400.0 mg/kg/injection, schedule: Q04DX003 (ip), vehicle: acetone).

Regarding `OCC[S+](CCO)CCO`, the T/C is 105 % of control under setting [3]; 102 % of control under setting [4]; 104 % of control (dose: 400.0 mg/kg/injection, schedule: Q04DX003 (ip), vehicle: saline).

With `CN1CCOC1=Nc1cccc2c1CCCC2`, the T/C is 96 % of control (dose: 50.0 mg/kg/injection, schedule: Q01DX009 (ip), vehicle: other); 101 % of control (dose: 100.0 mg/kg/injection, schedule: Q01DX009 (ip), vehicle: other); 95 % of control (dose: 400.0 mg/kg/injection, schedule: Q01DX009 (ip), vehicle: other).

For the compound `c1ccc2c(c1)c1c(n2N2CCCCC2)CCC1`, the T/C reads like this: (dose: 100.0 mg/kg/injection, schedule: Q04DX002 (ip), vehicle: saline with Tween-80) 90 % of control; (dose: 200.0 mg/kg/injection, schedule: Q04DX002 (ip), vehicle: saline with Tween-80) 95 % of control.

Turning to `c1ccc2[nH]c(CN3CCCCC3)cc2c1`, the T/C reads like this: under setting [1], 103 % of control; under setting [2], 98 % of control; under setting [6], 98 % of control.

Take `COC(=O)CCNc1ccccc1`: the T/C reads like this: (dose: 100.0 mg/kg/injection, schedule: Q01DX009 (ip), vehicle: saline with Tween-80) 108 % of control; (dose: 200.0 mg/kg/injection, schedule: Q01DX009 (ip), vehicle: saline with Tween-80) 100 % of control; (dose: 400.0 mg/kg/injection, schedule: Q01DX009 (ip), vehicle: saline with Tween-80) 102 % of control.

Take `CCOC(=O)N1C=Cn2c(cnc2C)C1OC` (configuration not stated): the T/C is 93 % of control (dose: 50.0 mg/kg/injection, schedule: Q01DX009 (ip), vehicle: water); 98 % of control (dose: 100.0 mg/kg/injection, schedule: Q01DX009 (ip), vehicle: water); 95 % of control and 86 % of control (dose: 200.0 mg/kg/injection, schedule: Q01DX009 (ip), vehicle: water).

Turning to `O=[N+]([O-])c1ccc(P(=O)(Nc2ccc(Cl)cc2)Nc2ccc(Cl)cc2)cc1`, the T/C (dose: 75.0 mg/kg/injection, schedule: Q01DX001 (ip), vehicle: saline) is 86 % of control; the T/C (dose: 150.0 mg/kg/injection, schedule: Q01DX001 (ip), vehicle: saline) is 86 % of control; the T/C (dose: 300.0 mg/kg/injection, schedule: Q01DX001 (ip), vehicle: saline) is 91 % of control.

Consider `COc1ccn(C2CCCO2)c(=O)n1` (configuration not stated), for which the T/C (dose: 50.0 mg/kg/injection, schedule: Q01DX001 (ip), vehicle: saline) was 101 % of control; the T/C (dose: 100.0 mg/kg/injection, schedule: Q01DX001 (ip), vehicle: saline) is 101 % of control; the T/C (dose: 200.0 mg/kg/injection, schedule: Q01DX001 (ip), vehicle: saline) is 104 % of control; the T/C (dose: 400.0 mg/kg/injection, schedule: Q01DX001 (ip), vehicle: saline) is 104 % of control.

With `COc1cc2c(cc1OC)C1Cc3ccc(OC)c(OC)c3CN1CC2` (configuration not stated), the T/C runs as follows: under setting [6], 86 % of control; (dose: 100.0 mg/kg/injection, schedule: Q04DX002 (ip), vehicle: Klucel (hydroxypropylcellulose) (HPC)) 87 % of control; (dose: 100.0 mg/kg/injection, schedule: Q04DX003 (ip), vehicle: saline with Tween-80) 116 % of control; under setting [5], 103 % of control; (dose: 200.0 mg/kg/injection, schedule: Q04DX003 (ip), vehicle: saline with Tween-80) 94 % of control.

The record behind these values is PubChem BioAssay AID248 (DTP/NCI, 2004).
